According to the supplement of paper PMC10920090:

What was measured:
[1] = system: MDA-MB-231; test: drug sensitivity score (DSS), cell viability CellTiter-Glo; higher = more sensitive; extreme values may be limits of the assay; conditions: 72 h
[2] = system: MDA-MB-231; test: drug sensitivity score (DSS), cytotoxicity CellTox Green; higher = more cytotoxic; extreme values may be limits of the assay; conditions: 72 h
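Wherever drug sensitivity score (DSS), cytotoxicity CellTox Green is given: DSS summarises each dose–response curve by combining IC50, EC50, maximal inhibition and efficacy across drug concentrations.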

SMILES	drug sensitivity score ([1]; shRNA: shPPFIA1_1)	drug sensitivity score ([1]; shRNA: shScramble)	drug sensitivity score ([2]; shRNA: shPPFIA1_1)	drug sensitivity score ([2]; shRNA: shScramble)
N#Cc1c(Oc2ccc(F)c(NC(=O)Cc3cccc(C(F)(F)F)c3)c2)ccc2nc(NC(=O)C3CC3)sc12 [TAK-632]	1.6 DSS	8.7 DSS	17.8 DSS	5.3 DSS
CCc1nc(-c2cccc(C)c2)c(-c2ccnc(NC(=O)c3ccccc3)c2)s1 [TAK-715]	0 DSS	0.8 DSS	0.3 DSS	0 DSS
Cn1c(=O)c(F)c(Nc2ccc(I)cc2F)c2c(=O)n(C[C@@H](O)CO)cnc21 [TAK-733]	4.8 DSS	12.8 DSS	6.9 DSS	8.8 DSS
CCS(=O)(=O)c1cccc(-c2cc(C(=O)NC3CCN(C)CC3)c(C)c3[nH]c4ncc(C)cc4c23)c1 [TAK-901]	0 DSS	3.6 DSS	0 DSS	0 DSS
Cc1cccc(-c2[nH]c(CNc3ccccc3F)nc2-c2ccc3ncnn3c2)n1 [TEW-7197]	9.1 DSS	0 DSS	0.9 DSS	0 DSS
Nc1nc(N)c2nc(-c3cccc(O)c3)c(-c3cccc(O)c3)nc2n1 [TG100-115]	5.7 DSS	19 DSS	0 DSS	0 DSS
Cc1cc(C(C)Nc2ccccc2)c2nc(N3CCOCC3)cc(=O)n2c1 (stereo not drawn) [TGX-221]	0 DSS	3.2 DSS	0.6 DSS	0 DSS
Nc1nc(NC2CC2)cc(-c2cccc(Cl)c2Cl)n1 [TH588]	0.9 DSS	0.8 DSS	0.6 DSS	0.5 DSS
NC(=O)Nc1sc(-c2ccc(F)cc2)cc1C(N)=O [TPCA-1]	0 DSS	1.9 DSS	0.9 DSS	0 DSS
Clc1ccccc1C(c1ccccc1)(c1ccccc1)n1cccn1 [TRAM-34]	0 DSS	0 DSS	0 DSS	0 DSS
CC(=O)Nc1ccc(C(=O)Nc2ccccc2N)cc1 [Tacedinaline]	0 DSS	0 DSS	0 DSS	0 DSS
C=CC[C@@H]1/C=C(\C)C[C@H](C)C[C@H](OC)[C@H]2O[C@@](O)(C(=O)C(=O)N3CCCC[C@H]3C(=O)O[C@H](/C(C)=C/[C@@H]3CC[C@@H](O)[C@H](OC)C3)[C@H](C)[C@@H](O)CC1=O)[C@H](C)C[C@@H]2OC [Tacrolimus]	0 DSS	0 DSS	0 DSS	0 DSS
Cn1ncnc1[C@H]1c2n[nH]c(=O)c3cc(F)cc(c23)N[C@@H]1c1ccc(F)cc1 [Talazoparib]	0 DSS	0.4 DSS	0 DSS	0 DSS
C[C@@H]1CN(Cc2ccc(F)cc2)[C@@H](C)CN1C(=O)c1cc2c(C(=O)C(=O)N(C)C)cn(C)c2cc1Cl [Talmapimod]	0 DSS	0 DSS	0 DSS	0 DSS
COc1cc(Nc2ncc(F)c(Nc3ccc4c(n3)NC(=O)C(C)(C)O4)n2)cc(OC)c1OC [Tamatinib]	0 DSS	1.8 DSS	0.2 DSS	0 DSS
CC/C(=C(\c1ccccc1)c1ccc(OCCN(C)C)cc1)c1ccccc1 [Tamoxifen]	1.8 DSS	1 DSS	6.3 DSS	1.8 DSS
COc1cc2c(N3CCN(C(=O)Nc4ccc(OC(C)C)cc4)CC3)ncnc2cc1OCCCN1CCCCC1 [Tandutinib]	9.9 DSS	6.5 DSS	0 DSS	0 DSS
C=CCNC1=C2C[C@@H](C)C[C@H](OC)[C@H](O)[C@@H](C)/C=C(\C)[C@H](OC(N)=O)[C@@H](OC)/C=C\C=C(/C)C(=O)NC(=CC1=O)C2=O [Tanespimycin]	6.7 DSS	12.3 DSS	2 DSS	3.1 DSS
O[C@H]1CC[C@H](Nc2ncc3nc(Nc4c(F)cc(F)cc4F)n([C@H]4CCOC4)c3n2)CC1 [Tanzisertib]	0 DSS	3.1 DSS	0 DSS	0 DSS
C[C@@H](C(=O)O)c1ccc(-c2ccccc2)c(F)c1 [Tarenflurbil]	0 DSS	0 DSS	0 DSS	0 DSS
Cc1nc(-c2cn3c(n2)-c2ccc(-c4cnn(C(C)(C)C(N)=O)c4)cc2OCC3)n(C(C)C)n1 [Taselisib]	0 DSS	0.9 DSS	0 DSS	0 DSS
COc1cccc2c1c(O)c(C(=O)N(C)c1ccc(C(F)(F)F)cc1)c(=O)n2C [Tasquinimod]	0 DSS	3.4 DSS	0 DSS	0 DSS
CCN(c1cc(-c2ccc(CN3CCOCC3)cc2)cc(C(=O)NCc2c(C)cc(C)[nH]c2=O)c1C)C1CCOCC1 [Tazemetostat]	1 DSS	0 DSS	0 DSS	0 DSS
CNC(=O)c1cc(COc2nnc(Nc3ccc(Cl)cc3)c3ccoc23)ccn1 [Telatinib]	0 DSS	0 DSS	0 DSS	0 DSS

SMILES	drug sensitivity score ([1]; shRNA: shPPFIA1_1)	drug sensitivity score ([1]; shRNA: shScramble)	drug sensitivity score ([2]; shRNA: shPPFIA1_1)	drug sensitivity score ([2]; shRNA: shScramble)
Cn1nnc2c(C(N)=O)ncn2c1=O [Temozolomide]	1.8 DSS	2.6 DSS	0 DSS	0 DSS
COc1cc([C@@H]2c3cc4c(cc3[C@@H](O[C@@H]3O[C@@H]5CO[C@@H](c6cccs6)O[C@H]5[C@H](O)[C@H]3O)[C@H]3COC(=O)[C@H]23)OCO4)cc(OC)c1O [Teniposide]	3.1 DSS	9 DSS	5.8 DSS	5.3 DSS
O=C1CCC(N2C(=O)c3ccccc3C2=O)C(=O)N1 (stereo not drawn) [Thalidomide]	0 DSS	0 DSS	0 DSS	0 DSS
S=P(N1CC1)(N1CC1)N1CC1 [Thio-TEPA]	0.9 DSS	0.9 DSS	0 DSS	0 DSS
Nc1nc2[nH]cnc2c(=S)[nH]1 [Thioguanine]	5.1 DSS	10.2 DSS	0 DSS	0 DSS
O=c1sn(-c2cccc3ccccc23)c(=O)n1Cc1ccccc1 [Tideglusib]	0 DSS	0 DSS	0 DSS	0 DSS
Cn1cncc1[C@@](N)(c1ccc(Cl)cc1)c1ccc2c(c1)c(-c1cccc(Cl)c1)cc(=O)n2C [Tipifarnib]	3.5 DSS	4 DSS	5.9 DSS	0.8 DSS
O=C1NC(=O)[C@@H](c2cn3c4c(cccc24)CCC3)[C@@H]1c1c[nH]c2ccccc12 [Tivantinib]	4.8 DSS	3.8 DSS	1.7 DSS	0.5 DSS
COc1cc2nccc(Oc3ccc(NC(=O)Nc4cc(C)on4)c(Cl)c3)c2cc1OC [Tivozanib]	0 DSS	1.9 DSS	3.3 DSS	0 DSS
C[C@@H]1CCN(C(=O)CC#N)C[C@@H]1N(C)c1ncnc2[nH]ccc12 [Tofacitinib]	0 DSS	0 DSS	0.9 DSS	0.9 DSS
CC[C@@]1(O)C(=O)OCc2c1cc1n(c2=O)Cc2cc3c(CN(C)C)c(O)ccc3nc2-1 [Topotecan]	0 DSS	5.8 DSS	0.8 DSS	1.5 DSS
CN(C)CCOc1ccc(/C(=C(/CCCl)c2ccccc2)c2ccccc2)cc1 [Toremifene]	2.4 DSS	1.3 DSS	4.6 DSS	1.8 DSS
CC(C)C[C@@H](C(=O)N[C@H](C(=O)OC1CCCC1)c1ccccc1)[C@H](O)C(=O)NO [Tosedostat]	4.2 DSS	2 DSS	12.4 DSS	7.8 DSS
Cc1cc(Nc2cc(N3CCN(C)CC3)nc(Sc3ccc(NC(=O)C4CC4)cc3)n2)n[nH]1 [Tozasertib]	0 DSS	3 DSS	1.6 DSS	0.3 DSS
CC1=C(/C=C/C(C)=C/C=C/C(C)=C/C(=O)O)C(C)(C)CCC1 [Tretinoin]	0 DSS	0 DSS	0 DSS	0 DSS
NC(=S)N/N=C/c1ncccc1N [Triapine]	0 DSS	1.2 DSS	0 DSS	0 DSS
O=C(CCCCCCC(=O)Nc1ccc([C@H]2O[C@@H](CSc3nc(-c4ccccc4)c(-c4ccccc4)o3)C[C@@H](c3ccc(CO)cc3)O2)cc1)NO [Tubacin]	7.3 DSS	5 DSS	7.2 DSS	2.2 DSS
CN1CCc2c(c3ccccc3n2Cc2ccc(C(=O)NO)cc2)C1 [Tubastatin A]	0 DSS	1 DSS	0.1 DSS	0 DSS
CN[C@@H]1C[C@H]2O[C@@](C)([C@@H]1OC)n1c3ccccc3c3c4c(c5c6ccccc6n2c5c31)C(=O)N[C@H]4O [UCN-01]	17 DSS	21.4 DSS	16.6 DSS	12.2 DSS
COC(=O)c1ccc2c(c1)[nH]c1ncnc(NCCCN3CCCCC3)c12 [UM729]	0 DSS	0 DSS	0 DSS	0 DSS
O=C(O)CSc1cc(NS(=O)(=O)c2ccc(Br)cc2)c2ccccc2c1O [UMI-77]	3.2 DSS	10.8 DSS	8 DSS	18.7 DSS
COc1cc2c(NC3CCN(C(C)C)CC3)nc(C3CCCCC3)nc2cc1OCCCN1CCCC1 [UNC0638]	8.3 DSS	6.3 DSS	7 DSS	6.8 DSS
COc1cc2c(NC3CCN(C(C)C)CC3)nc(N3CCC(F)(F)CC3)nc2cc1OCCCN1CCCC1 [UNC0642]	3.5 DSS	3.1 DSS	3 DSS	0.5 DSS
